Reference: patent EP0960190B1, “IMI[…] RESISTANT SUGAR BEET PLANTS” (Michigan State University, priority 1996, dated 1998)
Like-named read-outs stand apart in the source and are kept apart here.

Tests used:
[1] = tested on: Sur; assay: Whole plant sugarbeet response to postemergence ALS-inhibiting herbicides; assay type: in vivo, Beta vulgaris L.; settings: for R/S: Sur whole plant, postemergence, relative to Rel-1
[2] = tested on: Rel-1; assay: as above; assay type: in vivo, Beta vulgaris L.; settings: Rel-1 whole plant, herbicide applied postemergence
[3] = tested on: Sir-13; assay: as above; assay type: in vivo, Beta vulgaris L.; settings: for R/S: Sir-13 whole plant, postemergence, relative to Rel-1
[4] = tested on: Rel-1; assay: Shoot culture herbicide resistance (shoot injury and fresh weight on M20 media); assay type: cell-based, Beta vulgaris L.; settings: Rel-1 sensitive control, herbicide concentration causing 50% injury to the shoot culture, 3 weeks, read-out: I50
Protocol: (§1) In step 7, shoot cultures were assessed for herbicide resistance by placing three small, consistently sized shoot cuttings on each plate of M20 media supplemented with logarithmically increasing concentrations of imidazolinone herbicide, sulfonylurea or triazolopyrimidine sulfonanilide ranging from 1 nM to 0.1 mM. 93R30 culture responses were compared to that of shoot cultures of a sensitive control (Rel-1) and a chlorsulfuron resistant, imidazolinone sensitive control (EL-49). Shoot cultures were maintained at 20 µE/m^2 s light intensity at 25°C for 3 weeks. Shoot culture was determined by rating shoot injury and fresh weight 3 weeks after transfer to selective media. Magnitude of herbicide resistance was determined by the ratio of resistant to sensitive I50 values (the herbicide concentration causing 50 percent injury).

[5] = tested on: 93R30B; assay: as above; assay type: cell-based, Beta vulgaris L.; settings: for R/S / IC50: 93R30B; for R/S: ratio of resistant to sensitive control (Rel-1) I50 values, shoot culture; for R/S / level of resistance: 30240 min; for IC50: herbicide concentration causing 50% injury to the shoot culture, 3 weeks, read-out: I50; for level of resistance: 93R30B in shoot culture
Protocol: as §1

[6] = tested on: EL-49; assay: as above; assay type: cell-based, Beta vulgaris L.; settings: for IC50 / R/S: EL-49; for IC50: herbicide concentration causing 50% injury to the shoot culture, 3 weeks, read-out: I50; for R/S: ratio of resistant to sensitive control (Rel-1) I50 values, shoot culture
Protocol: as §1

[7] = tested on: 93R30B; assay: Whole plant sugarbeet response to postemergence ALS-inhibiting herbicides; assay type: in vivo, Beta vulgaris L.; settings: for R/S: 93R30B (SB) whole plant, postemergence, relative to Rel-1
[8] = tested on: ALS enzyme from Sur; assay: ALS enzyme activity assay in leaf extracts (acetoin colorimetry); assay type: biochemical, Beta vulgaris L.; settings: Sur single mutant ALS enzyme in vitro
Protocol: Standard procedures were utilized to partially purify ALS from rapidly expanding leaves of greenhouse-grown sugar beet plants (Hart, et al. Weed Science 40:378-383 (1992)). Extracts from heterozygous 93R30B F1 plants and Rel-1 S1 seed were assayed for ALS activity in the presence of logarithmically increasing concentrations of imazethapyr. ALS activity was determined from leaf extracts of REL-1 and 93R30B sugarbeet lines. Plants were grown in the greenhouse as described above to the four to six leaf stage. ALS activity from fresh extracts was determined in the presence of imazethapyr and chlorsulfuron at logarithmically increasing concentrations. […]
(§2) ALS activity is measured by adding 0.2 ml of enzyme preparation (diluted 3:1 with resuspension buffer) to 1.3 ml of reaction buffer (25 mM K2HPO4, pH 7.0, 0.625 mM MgCl2, 25 mM sodium pyruvate, 0.625 mM thiamine pyrophosphate, 1.25 µM flavin adenine dinucleotide) and incubated at 35°C for 1 hour. […]
(§3) Purchased acetoin was used as a standard for the colorimetric reaction. Acetoin concentrations were determined by measuring the absorption of the reaction solution at 530 nm. […] Protein concentrations of the extracts was determined by the method of Bradford (Anal. Biochem. 72:248-254 (1976)) using bovine serum albumin for the standard curve.

[9] = tested on: ALS extracts from 93R30B; assay: as above; assay type: biochemical, Beta vulgaris L.; settings: for resistance of the ALS enzyme: SB double mutant ALS enzyme in vitro
Protocol: Standard procedures were utilized to partially purify ALS from rapidly expanding leaves of greenhouse-grown sugar beet plants (Hart, et al. Weed Science 40:378-383 (1992)). Extracts from heterozygous 93R30B F1 plants and Rel-1 S1 seed were assayed for ALS activity in the presence of logarithmically increasing concentrations of imazethapyr. ALS activity was determined from leaf extracts of REL-1 and 93R30B sugarbeet lines. Plants were grown in the greenhouse as described above to the four to six leaf stage. ALS activity from fresh extracts was determined in the presence of imazethapyr and chlorsulfuron at logarithmically increasing concentrations. The methods and procedures used were modified from those outlined by Ray (Plant Physiol. 75:827-831 (1984)) and Shaner, et al. (Plant Physiol. 76:545-546 (1984)). Ten g of sugarbeet leaves were homogenized in 40 ml cold homogenization buffer (0.1 M K2HPO4, pH 7.5, 1 mM sodium pyruvate, 0.5 mM MgCl2, 0.5 mM thiamine pyrophosphate, 10 µM of flavin adenine dinucleotide, 10% by vol glycerol) plus 2.5 g polyvinylpolypyrolidone. The homogenate was filtered through eight layers of cheesecloth and centrifuged at 27,000 g for 20 minutes. The supernatant was removed and brought to 50% saturation with (NH4)2SO4. […]
as §2
as §3, with “curve. […]” for “curve.”

[10] = tested on: ALS enzyme from Sir-13; assay: as above; assay type: biochemical, Beta vulgaris L.; settings: Sir-13 single mutant ALS enzyme in vitro
[11] = tested on: sensitive cells; assay: Cell selection on herbicide-supplemented solid B1 media; assay type: cell-based, Beta vulgaris L.; settings: 50 nM in solid B1 media, 8-12 weeks, dim fluorescent light
Text: Rel-1 (Regenerating East Lansing-1) is a highly regenerable male fertile sugar beet line used for initial cell selection for herbicide-resistant mutant to the sulfonylureas and is used as a sensitive control for most experiments. CR1-B This sugar beet isolate was developed by plating Rel-1 cells on chlorsulfuron-containing media. This variant is sulfonylurea resistant with modest resistance to the triazolopyrimidine herbicide, flumetsulam, but no imidazolinone resistance. This variant has been described by Saunders et al. (Crop Sci. 32:1357-1360) and Hart et al. (Weed Sci. 40:378-383 and 41:317-324). The SU resistance gene has been labeled Sur. 93R30B This isolate was developed by plating cells of a highly regenerable, Sur homozygous sugar beet plant (descendant of CR1-B) on media containing imazethapyr. EL-49 East Lansing 49, released by the USDA in 1993. Sugar beet line homozygous for the Sur gene, used for a sulfonylurea-resistant, imazethapyr- sensitive control. • a. Plants were selected as source materials for somaclonal selection based on their ability to generate callus under high cytokinin conditions (in B1 media) and regenerate shoots from callus. […]

Molecule: COCc1cnc(C2=NC(C)(C(C)C)C(=O)N2)c(C(=O)O)c1 (stereo not drawn) [AC299,263]
- R/S [1]: 4 X
- I50 [2]: 1.1 g ha^-1
- R/S [3]: 130 X
- IC50 ([4]; Beta vulgaris, 504 h): 30 nM
- R/S [5]: 1400X
- IC50 ([5]; Beta vulgaris, 504 h): 40000 nM
- IC50 ([6]; Beta vulgaris, 504 h): 70 nM
- R/S ([6]; 30240 min): 3X
- R/S [7]: >250 X

Molecule: COc1nc(C)nc(NC(=O)NS(=O)(=O)c2ccccc2Cl)n1 [Chlorsulfuron]
- R/S [1]: >1000 X
- R/S ([1]; listed as chlorsulfuron): > 1000 X
- I50 [2]: 0.07 g ha^-1
- R/S [3]: 1 X
- IC50 ([4]; Beta vulgaris, 504 h): 2.5 nM
- level of resistance [5]: 10,000 fold
- R/S [5]: 10000X
- IC50 ([5]; Beta vulgaris, 504 h): 25000 nM
- IC50 ([6]; Beta vulgaris, 504 h): 25000 nM
- R/S ([6]; 30240 min): 10000X
- R/S [7]: 20 X
- reduction of whole plant resistance of the SB double mutant ([7]; SB double mutant compared with Sur single mutant, whole plant): more than 50 fold

Molecule: Cc1ccn2nc(S(=O)(=O)Nc3c(F)cccc3F)nc2n1 [Flumetsulam]
- resistance of the ALS enzyme [8]: 50 X
- resistance of the ALS enzyme [9]: 200 X
- resistance of the ALS enzyme [10]: 3 X
- IC50 ([4]; Beta vulgaris, 504 h): 28 nM
- level of resistance [5]: 60 fold
- R/S [5]: 60X
- IC50 ([5]; Beta vulgaris, 504 h): 1700 nM
- IC50 ([6]; Beta vulgaris, 504 h): 1100 nM
- R/S ([6]; 30240 min): 40X

Molecule: CC(C)C1(C)N=C(c2nc3ccccc3cc2C(=O)O)NC1=O (stereo not drawn) [Imazaquin]
- IC50 ([4]; Beta vulgaris, 504 h): 40 nM
- R/S [5]: 400X
- IC50 ([5]; Beta vulgaris, 504 h): 16000 nM
- IC50 ([6]; Beta vulgaris, 504 h): 40 nM
- R/S ([6]; 30240 min): 1X

Molecule: CCc1cnc(C2=NC(C)(C(C)C)C(=O)N2)c(C(=O)O)c1 (stereo not drawn) [Imazethapyr]
- resistance ([1]; Sur single mutant, postemergence to whole plants): 3 fold
- R/S [1]: 3 X
- cell survival [11]: all sensitive cells died
- resistance of the ALS enzyme [8]: 1 X
- resistance of the ALS enzyme [9]: > 1000 X
- level of resistance at the enzyme level ([9]; ratio of I50's for the resistant (93R30B, heterozygous F1) and sensitive (Rel-1) lines): 1750 fold
- resistance of the ALS enzyme [10]: 40 X
- I50 [2]: 0.5 g ha^-1
- resistance ([3]; Sir-13 single mutant, postemergence to whole plants): 100 fold
- R/S [3]: 100 X
- IC50 ([4]; Beta vulgaris, 504 h): 18 nM
- level of resistance [5]: 3600 fold
- R/S [5]: 3600X
- IC50 ([5]; Beta vulgaris, 504 h): 64000 nM
- IC50 ([6]; Beta vulgaris, 504 h): 53 nM
- R/S ([6]; 30240 min): 3X
- level of resistance ([6]; EL-49 in shoot culture, 30240 min): 3 fold
- R/S [7]: 300 X
- resistance ([7]; SB double mutant, postemergence to whole plants): 300 fold

Molecule: Cc1cc(C)nc(NC(=O)NS(=O)(=O)c2ccccc2C(=O)O)n1 [Sulfometuron]
- R/S [1]: 23 X
- I50 [2]: 0.2 g ha^-1
- R/S [3]: 1 X
- R/S [7]: 4X

Molecule: Imazamethabenzmethyl
- IC50 [4]: 800 nM
- IC50 [5]: > 100000 nM
- R/S [5]: > 125X
- IC50 [6]: 20000 nM
- R/S ([6]; 30240 min): 25X
